pIC50: −log10 of the molar value.
How the values were obtained:
androgen receptor (AR) = biological target: T1, androgen receptor (AR) (Homo sapiens, UniProt P10275, T878A); experiment: Androgen-induced PSA-luciferase assay, Luciferase Assay A (LNCaP transiently transfected with PSA (6.1 kb)-luciferase reporter); format: cell-based; conditions: LNCaP cells, 1 h pretreatment, R1881 (1 nM) 24 h, read-out: PSA-Luc IC50 Range
T1 construct: endogenous in cells; host or cells: LNCaP
T1 sequence (P10275 1-920 T878A): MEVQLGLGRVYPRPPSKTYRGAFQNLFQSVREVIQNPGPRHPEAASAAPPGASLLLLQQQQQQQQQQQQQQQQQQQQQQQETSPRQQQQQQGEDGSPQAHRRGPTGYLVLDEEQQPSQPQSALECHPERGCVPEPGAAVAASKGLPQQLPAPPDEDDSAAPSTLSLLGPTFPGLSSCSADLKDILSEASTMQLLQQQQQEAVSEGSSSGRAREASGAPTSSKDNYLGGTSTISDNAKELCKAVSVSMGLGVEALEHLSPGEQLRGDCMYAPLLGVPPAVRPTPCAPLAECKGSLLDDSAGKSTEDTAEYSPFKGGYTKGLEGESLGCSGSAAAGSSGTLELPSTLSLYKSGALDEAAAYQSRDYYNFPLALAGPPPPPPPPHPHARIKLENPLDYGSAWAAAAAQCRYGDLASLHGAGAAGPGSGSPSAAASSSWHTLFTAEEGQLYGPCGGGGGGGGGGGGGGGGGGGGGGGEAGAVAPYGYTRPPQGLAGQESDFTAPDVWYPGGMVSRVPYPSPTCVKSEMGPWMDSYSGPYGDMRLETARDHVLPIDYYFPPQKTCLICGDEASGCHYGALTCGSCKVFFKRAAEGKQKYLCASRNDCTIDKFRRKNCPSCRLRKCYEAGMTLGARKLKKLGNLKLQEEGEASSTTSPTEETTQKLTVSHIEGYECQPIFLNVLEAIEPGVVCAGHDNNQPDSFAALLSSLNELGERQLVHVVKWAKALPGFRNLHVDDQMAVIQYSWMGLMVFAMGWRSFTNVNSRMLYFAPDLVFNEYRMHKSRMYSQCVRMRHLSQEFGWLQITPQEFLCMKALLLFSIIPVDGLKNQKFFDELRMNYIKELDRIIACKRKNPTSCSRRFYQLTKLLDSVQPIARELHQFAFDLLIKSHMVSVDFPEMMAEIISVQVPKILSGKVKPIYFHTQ
In short: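 LNCaP cells transfected 24 h with PSA (6.1 kb)-luciferase reporter, pretreated 1 h with compound, then stimulated 24 h with R1881 (1 nM). Firefly luminescence in lysates normalized to protein content; IC50 from activity relative to R1881-induced vehicle control.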

[1] = Microsomal stability assay, liver microsome half-life (human); format: in vitro ADME; conditions: pH 7.4; human liver microsomes 0.5 mg/mL + NADPH, 1 μM compound, 37° C; read-out: Liver microsome + NADPH T½ (min) Human
Source text: (§1) Microsomal Stability Assay: Microsomal stability assay is a widely used in vitro model to characterize the metabolic conversion by phase I enzymes, such as cytochrome P450 (CYP) enzymes. Since metabolism is known to be highly variable in different species, microsomal stability assay is commonly run in multiple species. Metabolic stability of testing compound can be evaluated using human, rat, mouse, or other animal liver or intestine microsomes to predict intrinsic clearance.
(§2) The assay was carried out in 96-well microtiter plates at 37° C. Reaction mixtures (25 μL) contained a final concentration of 1 μM test compound, 0.5 mg/mL liver microsomes protein, and 1 mM NADPH and/or 1 mM UDPGA (with alamethicin) in 100 mM potassium phosphate, pH 7.4 buffer with 3 mM MgCl2. The incubation was done with N=1, but duplicate incubation at each time point can be prepared if necessary. At each of the time points (for example, 0, 15, 30, and 60 minutes), 150 μL of quench solution (100% acetonitrile with 0.1% formic acid) with internal standard was transferred to each well. Besides the zero minute controls, mixtures containing the same components except the NADPH can also be prepared as the negative control. Verapamil was included as a positive control to verify assay performance. Plates were sealed, vortexed, and centrifuged at 4° C. for 15 minutes at 4000 rpm. The supernatant is transferred to fresh plates for LC/MS/MS analysis.
(§3) Summarized conditions: [Compound]=1 μM, [LM]=0.5 mg/mL, [NADPH]=1 mM and/or [UDPGA]=1 mM, Buffer=100 mM Potassium Phosphate, pH 7.4 with 3 mM MgCl2, Time=0, 15, 30, and 60 min, and Temperature=37° C.
(§4) All samples were analyzed on LC/MS/MS using an AB Sciex API 4000 instrument, coupled to a Shimadzu LC-20AD LC Pump system. Analytical samples were separated using a Waters Atlantis T3 dC18 reverse phase HPLC column (20 mm×2.1 mm) at a flow rate of 0.5 mL/min. The mobile phase consisted of 0.1% formic acid in water (solvent A) and 0.1% formic acid in 100% acetonitrile (solvent B).
(§5) The extent of metabolism is calculated as the disappearance of the test compound, compared to the 0-min time incubation. Initial rates are calculated for the compound concentration and used to determine half-life (t1/2).

[2] = Microsomal stability assay, liver microsome half-life (rat); format: in vitro ADME; conditions: pH 7.4; rat liver microsomes 0.5 mg/mL + NADPH, 1 μM compound, 37° C; read-out: Liver microsome + NADPH T½ (min) Rat
Source text: as §1, §2, §3, §4, §5

[3] = Microsomal stability assay, liver microsome half-life (mouse); format: in vitro ADME; conditions: pH 7.4; mouse liver microsomes 0.5 mg/mL + NADPH, 1 μM compound, 37° C; read-out: Liver microsome + NADPH T½ (min) Mouse
Source text: as §1, §2, §3, §4, §5

[4] = Microsomal stability assay, liver microsome half-life (dog); format: in vitro ADME; conditions: pH 7.4; dog liver microsomes 0.5 mg/mL + NADPH, 1 μM compound, 37° C; read-out: Liver microsome + NADPH T½ (min) Dog
Source text: as §1, §2, §3, §4, §5

[5] = Microsomal stability assay, liver microsome half-life (monkey); format: in vitro ADME; conditions: pH 7.4; monkey liver microsomes 0.5 mg/mL + NADPH, 1 μM compound, 37° C; read-out: Liver microsome + NADPH T½ (min) Monkey
Source text: as §1, §2, §3, §4, §5

SMILES	pIC50 (androgen receptor (AR))	half-life at 1 μM [1] [min]	half-life at 1 μM [2] [min]	half-life at 1 μM [3] [min]	half-life at 1 μM [4] [min]	half-life at 1 μM [5] [min]
CC(C)(c1ccc(-c2ccc(CNS(C)(=O)=O)nc2)cc1)c1cc(Cl)c(OCCCl)c(C#N)c1 [Compound A1]	5.70 to 6.30	> 120	61	> 120	62	> 120
CC(C)(c1ccc(OC[C@H]2C[C@H](NS(C)(=O)=O)C2)cc1)c1cc(Cl)c(OCCCl)c(C#N)c1 [Compound A15, N-((1r,3r)-3-((4-(2-(3-chloro-4-(2-chloroethoxy)-5-cyanophenyl)propan-2-yl)phenoxy)methyl)cyclobutyl)methanesulfonamide]	5.70 to 6.30	> 120	> 120	> 120	> 120	> 120
CS(=O)(=O)Nc1ccc2cc(-c3ccc(Oc4cc(Cl)c(OCCCl)c(C#N)c4)cc3)cnc2n1 [Compound A24]	5.70 to 6.30	> 120	> 120	> 120	78	> 120
CS(=O)(=O)Nc1cnc2cc(-c3ccc(N(c4cc(Cl)c(OC5CC5)c(C#N)c4)C4CC4)cc3)ccc2n1 [Compound A177]	5.70 to 6.30	> 120	> 120	> 120	> 120	> 120
COc1c(Cl)cc(C(C)(C)c2ccc(OCc3ccnc(NS(C)(=O)=O)n3)cc2)cc1C#N [Compound A17, N-(4-((4-(2-(3-chloro-5-cyano-4-methoxyphenyl)propan-2-yl)phenoxy)methyl)pyrimidin-2-yl)methanesulfonamide]	5.70 to 6.30	> 120	> 120	> 120	> 120	> 120
CC(C)(c1ccc(OC2CC3(C2)CN(S(C)(=O)=O)C3)cc1)c1cc(Cl)c(OCCCl)c(C#N)c1 [Compound A72]	5.70 to 6.30	> 120	> 120	> 120	> 120	> 120
CC(C)(C)N(c1ccc(-c2ccc3nc(NS(C)(=O)=O)cnc3c2)cc1)c1cc(Cl)c(OCCCl)c(C#N)c1 [Compound A28]	5.70 to 6.30	78	> 120	> 120	> 120	> 120
CNC(=O)c1ccc(N2C(=S)N(c3ccc(C#N)c(C(F)(F)F)c3)C(=O)C2(C)C)cc1F [Enzalutamide, enzalutamide, reference compound]		> 120	> 120	> 120	> 120	> 120
CS(=O)(=O)Nc1cnc2cc(-c3ccc(Oc4cc(Cl)c(N5CCOCC5)c(C#N)c4)cc3)ccc2n1 [Compound A83]	5.70 to 6.30	> 120	> 120	> 120	> 120	> 120
CS(=O)(=O)Nc1cnc2cc(-c3ccc(Oc4cc(Cl)c(OCCCl)c(C#N)c4)cc3)ccc2n1 [Compound A16, N-(6-(4-(3-chloro-4-(2-chloroethoxy)-5-cyanophenoxy)phenyl)quinoxalin-2-yl)methanesulfonamide]	5.70 to 6.30	> 120	> 120	> 120	> 120	> 120
CC(C)(c1ccc(-c2cnn(CCNS(C)(=O)=O)c2)cc1)c1cc(Cl)c(OCCCl)c(C#N)c1 [Compound A12]	5.70 to 6.30	82	72	> 120	> 120	19
CC(C)(c1ccc(OC[C@H](O)CNS(C)(=O)=O)cc1)c1cc(Cl)c(OC[C@H](O)CCl)c(Cl)c1 [X, reference compound]		> 120				

Continued, values first:

pIC50 (androgen receptor (AR))	half-life at 1 μM [1] [min]	half-life at 1 μM [2] [min]	half-life at 1 μM [3] [min]	half-life at 1 μM [4] [min]	half-life at 1 μM [5] [min]	SMILES
> 6.30	> 120	112	> 120	> 120	117	CC(C)(c1ccc(-c2cnn([C@H]3C[C@H](NS(C)(=O)=O)C3)c2)cc1)c1cc(Cl)c(OCCCl)c(C#N)c1 [Compound A44, N-((1r,3r)-3-(4-(4-(2-(3-chloro-4-(2-chloroethoxy)-5-cyanophenyl)propan-2-yl)phenyl)-1H-pyrazol-1-yl)cyclobutyl)methanesulfonamide]
> 6.30	> 120	> 120	96	> 120	> 120	CS(=O)(=O)Nc1cnc2cc(-c3ccc(N(c4cc(Cl)c(OCCCl)c(C#N)c4)C4CC4)cc3)ccc2n1 [Compound A80, N-(6-(4-((3-chloro-4-(2-chloroethoxy)-5-cyanophenyl)(cyclopropyl)amino)phenyl)quinoxalin-2-yl)methanesulfonamide]
> 6.30	> 120	> 120	> 120	> 120	> 120	CN(c1ccc(-c2ccc3nc(NS(C)(=O)=O)cnc3c2)cc1)c1cc(Cl)c(OCCCl)c(C#N)c1 [Compound A81]
> 6.30	> 120	> 120	> 120	> 120	> 120	COc1c(Cl)cc(Oc2ccc(-c3ccc4nc(NS(C)(=O)=O)cnc4c3)cc2)cc1C#N [Compound A43]
> 6.30	> 120	66	> 120	> 120	49	CC(C)(c1ccc(-c2cnc(N3CC(NS(C)(=O)=O)C3)nc2)cc1)c1cc(Cl)c(OCCCl)c(C#N)c1 [Compound A36, N-(1-(5-(4-(2-(3-chloro-4-(2-chloroethoxy)-5-cyanophenyl)propan-2-yl)phenyl)pyrimidin-2-yl)azetidin-3-yl)methanesulfonamide]
